We go through 10 compounds from patent EP0326331B1, “Substituted quinolines and cinnolines” (Dow AgroSciences LLC, priority 1988, dated 1989).

Type in all cases: in vivo
Assay [1] concerns Pyricularia oryzae (rice blast). In words: whole plant or invertebrate. The conditions noted are these: disease control rating, foliar spray on rice, 400 ppm (+++ at 100 ppm).
Assay [2] has as its system Botrytis cinerea (gray mold). In words: Test 1 greenhouse foliar spray screen, gray mold on grape berries. The conditions noted are these: disease control rating, spray on grape berries, 400 ppm (+++ at 100 ppm).
Assay [3] concerns southern armyworm (Spodopetra eridania Cramer). In words: Mite/insect screen, SAW. The note with it: Spodoptera eridania, percent mortality, SAW, read-out: SAW RESULTS %; for mortality at 200 ppm: SM & MA RATE 200 PPM; for mortality at 400 ppm: SM & MA RATE 400 PPM. An outline of the steps:
(§1)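 Read-out: percent mortality after standard exposure periods. Test solutions were water dilutions of compound dissolved in acetone/alcohol (50:50) with emulsifier blends; leaves were sprayed to runoff on both surfaces and air-dried for one hour before exposure.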

For a further assay, the system named is corn rootworm. Nature of the assay: Mite/insect screen, CRW. The note with it: percent mortality, read-out: CRW RESULTS %; for mortality at 12 ppm: CRW RATE 12.00 PPM; for mortality at 24 ppm: CRW RATE 24.00 PPM. In outline:
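Read-out: % mortality after standard exposure. Formulation: acetone/alcohol (50:50) with emulsifiers at 23 g and 13 g per liter, water-diluted to final test levels.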

The test system of assay [4] is Pseudoperonospora cubensis (downy mildew). In words: Test 1 greenhouse foliar spray screen, downy mildew on squash. The note with it: disease control rating, foliar spray on squash, 400 ppm (+++ at 100 ppm).
Assay [5] deals with Twospotted spider mites (Tetranychus urticae Koch). Nature of the assay: Mite/insect screen, SM. The note with it: for mortality at 200 ppm / mortality at 400 ppm: Tetranychus urticae, percent mortality, SAW, read-out: SM RESULTS %; for mortality at 200 ppm: SM & MA RATE 200 PPM; for mortality at 400 ppm: SM & MA RATE 400 PPM. In outline: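 Foliar spray to runoff (10 psi), 1 h drying; aqueous dilutions from acetone/alcohol emulsifier stock. Mortality (%) after standard exposure.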

The test system of assay [6] is Puccinia recondita tritici (leaf rust). Nature of the assay: Test 1 greenhouse foliar spray screen, leaf rust on wheat. The conditions noted are these: disease control rating, foliar spray on wheat, 400 ppm (+++ at 100 ppm).
Assay [7] deals with melon aphids (Aphis gossypii Glover). Nature of the assay: Mite/insect screen, MA. The note with it: Aphis gossypii, percent mortality, SAW, read-out: MA RESULTS %; for mortality at 200 ppm: SM & MA RATE 200 PPM; for mortality at 400 ppm: SM & MA RATE 400 PPM. An outline of the steps:
as §1

Assay [8] has as its system Erysiphe graminis tritici (powdery mildew). Nature of the assay: Test 1 greenhouse foliar spray screen, powdery mildew on wheat. The note with it: disease control rating, foliar spray on wheat, 400 ppm (+++ at 100 ppm).

Consider `CC(=O)N(CCc1c(C)c(C)c(C)c(C)c1C)c1ccnc2c(F)cccc12` [Example 131, N-[2-(pentamethylphenyl)ethyl]-N-(8-fluoro-4-quinolinyl)acetamide], for which the “RICE BLAST” value in assay [1] was “- (0-19% control at 400 ppm)”. In addition, in assay [2], the “GRAY MOLD” value is listed as “- (0-19% control at 400 ppm)”. In addition, in assay [3], the mortality at 200 ppm amounted to 0% and the mortality at 400 ppm was 0%. In addition, in the assay on corn rootworm, the mortality at 12 ppm is 0% and the mortality at 24 ppm turned out to be 0%. Moreover, the “DOWN MDEW” value in [4] is given as “+ (20-89% control at 400 ppm)”. In addition, in assay [5], the mortality at 200 ppm worked out at 0% and the mortality at 400 ppm was found to be 0%. The “LEAF RUST” value in assay [6] is “- (0-19% control at 400 ppm)”. Moreover, in assay [7], the mortality at 200 ppm worked out at 0% and the mortality at 400 ppm stood at 0%. In addition, the “POWD MDEW” value in [8] is reported as “- (0-19% control at 400 ppm)”.

Consider `CC(=O)N(CCc1ccccc1Cl)c1ccnc2c(Cl)cccc12` [Example 132, N-[2-(2-chlorophenyl)ethyl]-N-(8-chloro-4-quinolinyl)acetamide], for which the “RICE BLAST” value in assay [1] is on record as “- (0-19% control at 400 ppm)”. For the same compound, the “GRAY MOLD” value in assay [2] was “- (0-19% control at 400 ppm)”. Moreover, in assay [3], the mortality at 200 ppm came out at 0% and the mortality at 400 ppm came out at 0%. Besides, in the assay with corn rootworm, the mortality at 12 ppm stood at 0% and the mortality at 24 ppm is 0%. For the same compound, the “DOWN MDEW” value in [4] is “- (0-19% control at 400 ppm)”. Besides, in assay [5], the mortality at 200 ppm stood at 0% and the mortality at 400 ppm was 0%. Also, the “LEAF RUST” value in [6] was “- (0-19% control at 400 ppm)”. In assay [7], the mortality at 200 ppm was determined as 0% and the mortality at 400 ppm worked out at 0%. Further, the “POWD MDEW” value in assay [8] was “- (0-19% control at 400 ppm)”.

Turning to `COc1ccc(CCNc2ccnc3c(C)c(C)ccc23)cc1` [Example 133, N-[2-(4-methoxyphenyl)ethyl]-7,8-dimethyl-4-quinolinamine], in assay [1], the “RICE BLAST” value is listed as “+ (20-89% control at 400 ppm)”. Also, in assay [2], the “GRAY MOLD” value is reported as “- (0-19% control at 400 ppm)”. Besides, in [3], the mortality at 200 ppm was 0% and the mortality at 400 ppm came out at 0%. In addition, in the assay on corn rootworm, the mortality at 12 ppm amounted to 0% and the mortality at 24 ppm turned out to be 0%. Moreover, the “DOWN MDEW” value in assay [4] is “+ (20-89% control at 400 ppm)”. Further, in assay [5], the mortality at 200 ppm worked out at 0% and the mortality at 400 ppm is 0%. In addition, the “LEAF RUST” value in assay [6] is reported as “+ (20-89% control at 400 ppm)”. Further, in assay [7], the mortality at 200 ppm was 0% and the mortality at 400 ppm turned out to be 0%. In addition, the “POWD MDEW” value in assay [8] is “- (0-19% control at 400 ppm)”.

For `Clc1ccc2c(NCCCc3ccc(-c4ccccc4)cc3)ccnc2c1` [Example 134, 7-chloro-N-[3-(1,1'-biphenyl)-4-ylpropyl]-4-quinolinamine], the “RICE BLAST” value in assay [1] is “++ (90-100% control at 400 ppm)”. Besides, the “GRAY MOLD” value in assay [2] is recorded as “- (0-19% control at 400 ppm)”. Moreover, the mortality at 400 ppm in assay [3], in [5] and in [7] was 0% each time. Moreover, the mortality at 24 ppm with corn rootworm worked out at 0%. The “DOWN MDEW” value in assay [4] is given as “+++ (90-100% control at 100 ppm)”. Also, the “LEAF RUST” value in [6] was “+ (20-89% control at 400 ppm)”. Further, the “POWD MDEW” value in assay [8] was “+ (20-89% control at 400 ppm)”.

Regarding `Fc1cccc2c(NCCCc3ccc(-c4ccccc4)cc3)ccnc12` [Example 137, N-[3-(1,1'-biphenyl)-4-ylpropyl]-8-fluoro-4-quinolinamine], the “RICE BLAST” value in assay [1] is “+++ (90-100% control at 100 ppm)”. Besides, the “GRAY MOLD” value in assay [2] is “- (0-19% control at 400 ppm)”. In addition, the mortality at 400 ppm amounted to 100% in assay [3], 80% in assay [5] and 80% in assay [7]. Besides, the mortality at 24 ppm in the assay on corn rootworm came out at 0%. Besides, in assay [4], the “DOWN MDEW” value is “+++ (90-100% control at 100 ppm)”. For the same compound, the activity as miticides entry in [5] (summary statement in the description) is listed as “particularly excellent activity”. The “LEAF RUST” value in assay [6] is reported as “+ (20-89% control at 400 ppm)”. Also, the “POWD MDEW” value in assay [8] is given as “+ (20-89% control at 400 ppm)”.

As for `CC(CCc1ccccc1)Nc1ccnc2c(F)cccc12` (stereo not shown) [Example 138, 8-fluoro-N-(1-methyl-3-phenylpropyl)-4-quinolinamine], the “RICE BLAST” value in [1] is on record as “+ (20-89% control at 400 ppm)”. The “GRAY MOLD” value in assay [2] is “- (0-19% control at 400 ppm)”. Besides, the mortality at 400 ppm in assay [3], in assay [5] and in assay [7] was 0% throughout. Further, the mortality at 24 ppm with corn rootworm is 0%. Besides, the “DOWN MDEW” value in [4] is on record as “+++ (90-100% control at 100 ppm)”. Also, the “LEAF RUST” value in assay [6] is on record as “+ (20-89% control at 400 ppm)”. Besides, the “POWD MDEW” value in assay [8] was “- (0-19% control at 400 ppm)”.

Turning to `CC(=O)N(CCCCc1ccc(Cl)cc1)c1ccnc2c(F)cccc12` [Example 141, N-[4-(4-chlorophenyl)butyl]-N-(8-fluoro-4-quinolinyl)acetamide], the “RICE BLAST” value in [1] is given as “++ (90-100% control at 400 ppm)”. The “GRAY MOLD” value in [2] was “- (0-19% control at 400 ppm)”. The mortality at 200 ppm in assay [3], in assay [5] and in assay [7] was 0% in each case. In addition, the mortality at 400 ppm in assay [3], in assay [5] and in [7] was 0% each time. In the assay with corn rootworm, the mortality at 12 ppm was found to be 0%. Besides, the mortality at 24 ppm in the assay on corn rootworm came to 0%. Also, in [4], the “DOWN MDEW” value was “+ (20-89% control at 400 ppm)”. Further, the “LEAF RUST” value in assay [6] is reported as “+ (20-89% control at 400 ppm)”. Further, the “POWD MDEW” value in [8] was “- (0-19% control at 400 ppm)”.

For the compound `Cc1ccc(C)c2c(NCCC3=CCCCC3)ccnc12` [Example 142, N-[2-(1-cyclohexenyl)ethyl]-5,8-dimethyl-4-quinolinamine], the “RICE BLAST” value in assay [1] is “++ (90-100% control at 400 ppm)”. Also, in assay [2], the “GRAY MOLD” value is “- (0-19% control at 400 ppm)”. Further, in assay [3], the mortality at 200 ppm stood at 0% and the mortality at 400 ppm turned out to be 0%. For the same compound, in the assay on corn rootworm, the mortality at 12 ppm amounted to 0% and the mortality at 24 ppm was found to be 0%. The “DOWN MDEW” value in assay [4] is reported as “+++ (90-100% control at 100 ppm)”. For the same compound, in assay [5], the mortality at 200 ppm stood at 0% and the mortality at 400 ppm amounted to 0%. In addition, the “LEAF RUST” value in [6] is listed as “++ (90-100% control at 400 ppm)”. In assay [7], the mortality at 200 ppm amounted to 0% and the mortality at 400 ppm worked out at 0%. The “POWD MDEW” value in assay [8] was “- (0-19% control at 400 ppm)”.

As for `CC(=O)N(CCC1=CCCCC1)c1ccnc2ccc(F)cc12` [Example 146, N-[2-(1-cyclohexenyl)ethyl]-N-(6-fluoro-4-quinolinyl)acetamide], the “RICE BLAST” value in assay [1] is on record as “- (0-19% control at 400 ppm)”. Also, the “GRAY MOLD” value in assay [2] is “- (0-19% control at 400 ppm)”. Further, in assay [3], the mortality at 200 ppm was 0% and the mortality at 400 ppm came to 0%. Moreover, in the assay with corn rootworm, the mortality at 12 ppm came to 0% and the mortality at 24 ppm was 0%. The “DOWN MDEW” value in [4] is recorded as “+ (20-89% control at 400 ppm)”. Further, in assay [5], the mortality at 200 ppm amounted to 0% and the mortality at 400 ppm turned out to be 0%. Also, the “LEAF RUST” value in assay [6] is reported as “- (0-19% control at 400 ppm)”. In addition, in [7], the mortality at 200 ppm came out at 0% and the mortality at 400 ppm is 0%. The “POWD MDEW” value in assay [8] was “- (0-19% control at 400 ppm)”.

In the case of `OC(CNc1ccnc2c(F)cccc12)c1ccc2ccccc2c1` (stereo not drawn) [Example 157, α-[[(8-fluoro-4-quinolinyl)amino]methyl]-2-naphthalenemethanol], the “RICE BLAST” value in [1] is on record as “++ (90-100% control at 400 ppm)”. In [2], the “GRAY MOLD” value is “- (0-19% control at 400 ppm)”. Further, the mortality at 400 ppm in [3] was 100%; in assay [5], 80%; in assay [7], 0%. In addition, the mortality at 24 ppm in the assay on corn rootworm is 0%. Also, the “DOWN MDEW” value in assay [4] is on record as “+++ (90-100% control at 100 ppm)”. The “LEAF RUST” value in assay [6] was “++ (90-100% control at 400 ppm)”. For the same compound, the “POWD MDEW” value in [8] was “- (0-19% control at 400 ppm)”.
